Experimental data published in US12540120B2, “Herbicidal compounds” (SYNGENTA CROP PROTECTION AG, priority 2019, dated 2026).

Columns and labels:
Type in all cases: in vivo
[1] = test system: Echinochloa crus-galli (ECHCG); assay: B3 Post-Emergence Efficacy—Test 3; details: post-emergence application, 250 g/ha, evaluated after 13 days (Test 3)
Procedure: (§1) B3 Post-Emergence Efficacy—Test 3 Seeds of a variety of test species are sown in standard soil in pots:—Amaranthus retoflexus (AMARE), Setaria faberi (SETFA), Echinochloa crus-galli (ECHCG), Ipomoea hederacea (IPOHE), Zea Mays (ZEAMX), Abutilon theophrasti (ABUTH). After 8 days cultivation (post-emergence) under controlled conditions in a glasshouse (at 24/16° C., day/night; 14 hours light; 65% humidity), the plants are sprayed with an aqueous spray solution derived from the formulation of the technical active ingredient in acetone/water (50:50) solution containing 0.5% Tween 20 (polyoxyethylene sorbitan monolaurate, CAS RN 9005-64-5). Compounds are applied at 250 g/ha. The test plants are then grown in a glasshouse under controlled conditions in a glasshouse (at 24/16° C., day/night; 14 hours light; 65% humidity) and watered twice daily. After 13 days, the test is evaluated for the percentage damage caused to the plant. The biological activities are assessed on a five point scale (5=80-100%; 4=60-79%; 3=40-59%; 2=20-39%; 1=0-19%). A blank value in the table is indicative that the compound was not tested on that species.

[2] = test system: Ipomoea hederacea (IPOHE); assay: B3 Post-Emergence Efficacy—Test 3; details: post-emergence application, 250 g/ha, evaluated after 13 days (Test 3)
Procedure: as §1

Zea Mays (ZEAMX) [3] = assay: B3 Post-Emergence Efficacy—Test 3; details: post-emergence application, 250 g/ha, evaluated after 13 days (Test 3)
Procedure: as §1

[4] = test system: Amaranthus retoflexus (AMARE); assay: B3 Post-Emergence Efficacy—Test 3; details: post-emergence application, 250 g/ha, evaluated after 13 days (Test 3)
Procedure: as §1

[5] = test system: Abutilon theophrasti (ABUTH); assay: B3 Post-Emergence Efficacy—Test 3; details: post-emergence application, 250 g/ha, evaluated after 13 days (Test 3)
Procedure: as §1

Setaria faberi (SETFA) [6] = assay: B3 Post-Emergence Efficacy—Test 3; details: post-emergence application, 250 g/ha, evaluated after 13 days (Test 3)
Procedure: as §1

[7] = test system: Echinochloa crus-galli (ECHCG); assay: B6 Pre-Emergence Efficacy—Test 3; details: pre-emergence application, 250 g/ha, evaluated after 13 days (Test 3)
Procedure: (§2) B6 Pre-Emergence Efficacy—Test 3 Seeds of a variety of test species were sown in standard soil in pots: Amaranthus retoflexus (AMARE), Setaria faberi (SETFA), Echinochloa crus-galli (ECHCG), Ipomoea hederacea (IPOHE), Zea Mays (ZEAMX), Abutilon theophrasti (ABUTH). After cultivation for one day (pre-emergence) under controlled conditions in a glasshouse (at 24/16° C., day/night; 14 hours light; 65% humidity), the plants were sprayed with an aqueous spray solution derived from the formulation of the technical active ingredient in acetone/water (50:50) solution containing 0.5% Tween 20 (polyoxyethelyene sorbitan monolaurate, CAS RN 9005-64-5). Compounds are applied at 250 g/ha. The test plants were then grown in a glasshouse under controlled conditions (at 24/16° C., day/night; 14 hours light; 65% humidity) and watered twice daily. After 13 days, the test is evaluated for the percentage damage caused to the plant. The biological activities are assessed on a five point scale (5=80-100%; 4=60-79%; 3=40-59%; 2=20-39%; 1=0-19%). A blank value in the table is indicative that the compound was not tested on that species.

[8] = test system: Ipomoea hederacea (IPOHE); assay: B6 Pre-Emergence Efficacy—Test 3; details: pre-emergence application, 250 g/ha, evaluated after 13 days (Test 3)
Procedure: as §2

Zea Mays (ZEAMX) [9] = assay: B6 Pre-Emergence Efficacy—Test 3; details: pre-emergence application, 250 g/ha, evaluated after 13 days (Test 3)
Procedure: as §2

[10] = test system: Amaranthus retoflexus (AMARE); assay: B6 Pre-Emergence Efficacy—Test 3; details: pre-emergence application, 250 g/ha, evaluated after 13 days (Test 3)
Procedure: as §2

[11] = test system: Abutilon theophrasti (ABUTH); assay: B6 Pre-Emergence Efficacy—Test 3; details: pre-emergence application, 250 g/ha, evaluated after 13 days (Test 3)
Procedure: as §2

Setaria faberi (SETFA) [12] = assay: B6 Pre-Emergence Efficacy—Test 3; details: pre-emergence application, 250 g/ha, evaluated after 13 days (Test 3)
Procedure: as §2

Row | SMILES | percentage damage caused to the plant, five point scale, ECHCG [1] | percentage damage caused to the plant, five point scale, IPOHE [2] | percentage damage caused to the plant, five point scale, ZEAMX (Zea Mays (ZEAMX) [3]) | percentage damage caused to the plant, five point scale, AMARE [4] | percentage damage caused to the plant, five point scale, ABUTH [5] | percentage damage caused to the plant, five point scale, SETFA (Setaria faberi (SETFA) [6]) | percentage damage caused to the plant, five point scale, ECHCG [7] | percentage damage caused to the plant, five point scale, IPOHE [8] | percentage damage caused to the plant, five point scale, ZEAMX (Zea Mays (ZEAMX) [9]) | percentage damage caused to the plant, five point scale, AMARE [10] | percentage damage caused to the plant, five point scale, ABUTH [11] | percentage damage caused to the plant, five point scale, SETFA (Setaria faberi (SETFA) [12])
1 | Cc1nn(C)c(=O)c(-c2c(F)ccc(Cl)c2CCc2ccc(C3CCC(C)O3)cc2)c1O (stereo not drawn) [Compound A-1.380] | 1 (1=0-19%) | 3 (3=40-59%) | 2 (2=20-39%) | 4 (4=60-79%) | 3 (3=40-59%) | 3 (3=40-59%) | 0 | 4 (4=60-79%) | 2 (2=20-39%) | 5 (5=80-100%) | 4 (4=60-79%) | 1 (1=0-19%)
2 | Cc1ccc(-c2ccc(CCc3c(Cl)ccc(F)c3-c3c(O)c(C)nn(C)c3=O)cc2)o1 [Compound A-1.381] | 0 | 4 (4=60-79%) | 1 (1=0-19%) | 4 (4=60-79%) | 3 (3=40-59%) | 2 (2=20-39%) | 0 | 3 (3=40-59%) | 1 (1=0-19%) | 3 (3=40-59%) | 1 (1=0-19%) | 0
3 | Cc1nn(C)c(=O)c(-c2c(F)ccc(Cl)c2CCc2ccc(-c3ncco3)cc2)c1O [Compound A-1.382] | 4 (4=60-79%) | 5 (5=80-100%) | 5 (5=80-100%) | 4 (4=60-79%) | 4 (4=60-79%) | 4 (4=60-79%) | 5 (5=80-100%) | 5 (5=80-100%) | 4 (4=60-79%) | 5 (5=80-100%) | 4 (4=60-79%) | 5 (5=80-100%)
4 | Cc1nn(C)c(=O)c(-c2c(F)ccc(Cl)c2CCc2cnn(-c3ccccc3)c2)c1O [Compound A-1.386] | 4 (4=60-79%) | 4 (4=60-79%) | 4 (4=60-79%) | 4 (4=60-79%) | 3 (3=40-59%) | 4 (4=60-79%) | 5 (5=80-100%) | 4 (4=60-79%) | 2 (2=20-39%) | 2 (2=20-39%) | 2 (2=20-39%) | 5 (5=80-100%)
5 | Cc1nn(C)c(=O)c(-c2c(F)ccc(Cl)c2CCc2cnn(C3CC3)c2)c1O [Compound A-1.387] | 4 (4=60-79%) | 4 (4=60-79%) | 4 (4=60-79%) | 4 (4=60-79%) | 4 (4=60-79%) | 4 (4=60-79%) | 5 (5=80-100%) | 5 (5=80-100%) | 4 (4=60-79%) | 5 (5=80-100%) | 4 (4=60-79%) | 5 (5=80-100%)
6 | CSCc1ccc(CCc2c(Cl)ccc(F)c2-c2c(O)c(C)nn(C)c2=O)cc1 [Compound A-1.388, 4-[3-chloro-6-fluoro-2-[2-[4-(methylsulfanylmethyl)phenyl]ethyl]phenyl]-5-hydroxy-2,6-dimethyl-pyridazin-3-one] | 4 (4=60-79%) | 4 (4=60-79%) | 4 (4=60-79%) | 5 (5=80-100%) | 5 (5=80-100%) | 4 (4=60-79%) | 5 (5=80-100%) | 5 (5=80-100%) | 4 (4=60-79%) | 5 (5=80-100%) | 5 (5=80-100%) | 5 (5=80-100%)
7 | Cc1nn(C)c(=O)c(-c2c(F)ccc(Cl)c2CCc2ccc(CSC(C)C)cc2)c1O [Compound A-1.389] | 5 (5=80-100%) | 5 (5=80-100%) | 5 (5=80-100%) | 4 (4=60-79%) | 4 (4=60-79%) | 5 (5=80-100%) | 5 (5=80-100%) | 5 (5=80-100%) | 4 (4=60-79%) | 5 (5=80-100%) | 3 (3=40-59%) | 5 (5=80-100%)
